Assay results from US7745450B2, “Pyrazolo[4,3-d]pyrimidines, processes for their preparation and methods for therapy” (Institute of Experimental Botany, priority 2002, dated 2010).
Read-outs that look alike come from different tables or passages of the source.

Key:
Type in all cases: cell-based, human
[1] = tested on: myeloid leukemia KG1 cell line; test: Cell proliferation of KG1, flow cytometric cell count; conditions: for Recovery of cell number after wash-out: washed free after 6 hours of exposure, 7 days drug-free medium
Method: Cell lines: Human leukemic cell lines were obtained from the American Type Culture Collection (ATCC, Rockville, Md., USA). They were cultured in Iscove's Modified Dulbecco's Medium (IMDM) supplemented with 10% heat inactivated fetal calf serum (FCS), 200 U/ml penicillin, 200 μg/ml streptomycin and 1 μg/ml amphotericin B. Cells were cultured in a 5% CO2-95% air fully humidified incubator. For effects on clonogenic output, 1000 cells/well were plated in duplicate in methylcellulose (0.9%), supplemented with 20% FCS for 14 days.
(§1) Cells were plated at 10000 per well in 200 μl IMDM medium and incubated with 0-50 μM of the novel compounds (Tab 8), by addition of drug directly to the culture medium and incubated at 37° C. for 96 hours (Tab 8). Absolute cell number was determined by addition of a known concentration Fluoresbrite microspheres (FITC) (Polysciences, Inc.). The absolute number of cells/well was calculated as: {(total number of beads added/well)/(number of beads measured)×(number of measured cells in the gate of interest)}. All analyses were performed with a FACScan (BD), using CELLQuest software (Becton Dickinson).
Response of the myeloid leukemia KG1 and T-lymphocyte leukemia Molt3 cell lines to the cytostatic effect of the novel compounds was determined using the above-mentioned standardized bead suspension that was used to determine the absolute cell number by flow cytometric (FCM) measurement. Cells were grown in the presence of increasing concentration of the novel compounds.
To determine reversibility of the effects of the novel compounds, cells were plated at 10000 per well and exposed to 0-50 μM of the compounds for the time indicated, followed by washing in phosphate-buffered saline (PBS) (Life Technologies) and reseeded into drug-free medium for 7 additional days. An identical set of cells was plated and exposed to the drugs for 7 additional days. After 7 days (168 hours), the relative cell number was assayed by flow cytometry.

[2] = tested on: adult bone marrow CD34+CD38− cells; test: Pre-CFU assay; conditions: for IC50: 14-day liquid culture, secondary methylcellulose culture
Text: Adult Bone Marrow Cells (ABM): Bone marrow samples were obtained by sternal puncture from hematologically normal donors undergoing cardiac surgery, after obtaining informed consent according to the ethical regulations of the University of Antwerp. Cells were collected in IMDM supplemented with 10% FCS and 100 U/ml heparin and separated by density gradient as mentioned for PBMC. After washing, cells were resuspended in IMDM 10% FCS and were sorted on a FACStar (Becton Dickinson, Erembodegem, Belgium).
Cell sorting: ABM cells (10^7 cells/ml) were incubated with 43A1 hybridoma supernatant at a 1/10 dilution for 20 minutes at 4° C. The supernatant of the 43A1 hybridoma (immunoglobulin IgG3) was kindly donated by Dr. H. J. Bühring (University of Tübingen, Germany) and was used as a source of anti-CD34 antibodies. After washing twice in IMDM, the cells were incubated with FITC-conjugated rabbit anti-mouse IgG (1/40 dilution) for 20 min at 4° C. After washing twice cells were incubated for 10 minutes with 5 μg mouse Ig and for 15 minutes with anti-CD38-PE (20 μl/10^6 cells). After washing twice in IMDM, the cells were sorted on a FACStarPlus cell sorter equipped with an water-cooled argon ion laser (INNOVA Enterprise Ion Laser) with multiple wave length outputs including UV (488 nm). Cells with low-to-medium forward and low side scatter, highly positive green (CD34) fluorescence, and an orange (CD38) fluorescence signal lower than the mean fluorescence of cells labeled with an irrelevant isotype-matched control antibody were retained as CD34^+CD38^− cells; cells with an orange fluorescence above this threshold were retained as CD34^+CD38^+ cells.
Pre-CFU: Pre-CFU assays were initiated by performing liquid cultures of CD34^+CD38^− in duplicate in 96-well flat-bottomed plates in IMDM/10% FCS, 1% bovine serum albumin (BSA), and different combinations of the following cytokines: 100 U/ml IL-1, 200 U/ml IL-6, 30 U/ml IL-3 and 100 ng/ml stel cell factor (SCF). Pre-CFU cultures were initiated with 500 CD34^+CD38^− cells/well (200 μl). After 14 days of culture at 37° C. in 7.5% O2 and 5% CO2 in a fully humidified incubator, the number of cells in each well was counted. Following this the cells were harvested, washed three times in IMDM/10% FCS, and plated in duplicate at 500 cells/well (1000 μl) in secondary methylcellulose CFU cultures as described for CFU assays.
Pre-CFU were cultured starting from adult bone marrow CD34^+CD38^− cells, that had been isolated using the FCM cell sorter. Novel compounds were added at different concentrations to the primary 14-day liquid culture. IC50 was calculated from dose-response curves from total clonogenic output after secondary methylcellulose culture (Tab. 8).

[3] = tested on: PHA-stimulated lymphocytes (PBMC); test: Proliferation of PHA-stimulated lymphocytes (PBMC), flow cytometric cell count; conditions: 96 hours, IL-2
Method: Peripheral blood mononuclear cells (PBMC): Human peripheral blood mononuclear cells were isolated by density gradient (Ficoll-Hypaque) (LSM, ICN Biomedicals Inc.). PBMC were stimulated with 5 μg/ml phytohemaglutinin A (PHA) (Sigma) during 24-48 hours in IMDM supplemented with 10% FCS at 37° C. After washing off the PHA, PBMC were incubated with interleukin-2 (IL-2) (10 U/ml) (Genzyme).
as §1
PHA-stimulated lymphocytes (PBMC) were tested for their cytotoxicity as one of the normal counterparts of the cell lines. Cells were grown for 96 hours in the presence of IL-2 and different concentrations of the novel compounds and cell number was counted on the flow cytometer.

[4] = continuous exposure, 7 days (168 hours), read-out: IC50, KG1 cells exposed continuously

IC50 ([1]; Homo sapiens, KG-1, 96 hours, read-out: KG1 IC50) | IC50 ([2]; Homo sapiens, 336 h) | IC50 ([1]; 96 hours, read-out: KG1 IC50) | IC50 [1, 4] | IC50 [2] | Molecule | IC50 ([3]; Homo sapiens, Lymphocyte) | Recovery of cell number after wash-out [1] | IC50 [3] | Activity on pre-CFU compared with CFU [2]
5 ± 0.3 µM | > 25 µM |  |  |  | CCCCCCNc1nc(NC(CO)c2ccccc2)c2[nH]nc(C(C)C)c2n1 (stereo not shown) [Compound 98, 5-(hexylamino)-7-(1-phenyl-2-hydroxyethylamino)-3-isopropylpyrazolo[4,3-d]pyrimidine] | 18 ± 1 µM |  |  | 
 |  | 6 ± 1 µM | 16 ± 1.7 µM | 10 µM | 5-(3-aminopropylamino)-7-benzylamino-3-isopropylpyrazolo[4,3-d]pyrimidine [Compound 17] |  | substantial recovery of cell number | 4 ± 0.2 µM | 
 |  | 3 ± 1 µM | 7 ± 2 µM | > 25 µM | 5-(3-hydroxypropylamino)-7-[(R,S)-(1-phenyl-2-hydroxyethyl)amino-3-isopropylpyrazolo[4,3-d]pyrimidine [Compound 172] |  | substantial recovery of cell number | 4 ± 0.5 µM | 
 |  | 12 ± 1.3 µM | 16 ± 1.3 µM | 1.5 µM | 5-(3-aminoethylamino)-7-(3,4-dihydroxybenzyl)amino-3-isopropylpyrazolo[4,3-d]pyrimidine [Compound 201] |  | substantial recovery of cell number | 8 ± 2.2 µM | 
 |  | 13 ± 0.2 µM |  | 86 µM | 5-(methylthio)-7-[N-(3,4-dihydroxybenzyl-N-methyl]amino-3 isopropylpyrazolo[4,3-d]pyrimidine [Compound 26] |  |  | 16.5 ± 0.8 µM | more active on pre-CFU than on CFU
